Each structure is given as a SMILES string.

Holding throughout (assay type): functional
For experiment [1], the system named is Mycobacterium tuberculosis. Put plainly: Antimycobacterial activity against Mycobacterium tuberculosis 3-RM1 expressing mymA mutant assessed as inhibition of microbial growth incubated for 6 days by alamar blue resazurin assay. Background: Resazurin is reduced to fluorescent resorufin, in cell work by metabolically active cells.
For experiment [2], the system named is Mycobacterium tuberculosis. Put plainly: Antimycobacterial activity against Mycobacterium tuberculosis Rv3083::Tn expressing mymA mutant assessed as inhibition of microbial growth incubated for 6 days by alamar blue resazurin assay.
The test system of experiment [3] is Mycobacterium tuberculosis. The experiment in a line: Antimycobacterial activity against Mycobacterium tuberculosis SG2 expressing ethA and mymA mutant assessed as inhibition of microbial growth incubated for 6 days by alamar blue resazurin assay.
Experiment [4] deals with Mycobacterium tuberculosis. The experiment in a line: Antimycobacterial activity against Mycobacterium tuberculosis 2-RM1 expressing ethA frameshift mutant assessed as inhibition of microbial growth incubated for 6 days by alamar blue resazurin assay.

For orientation: MIC means the lowest concentration that inhibits growth of the organism. As to `O=C(CCSc1nc2cc(Cl)ccc2o1)N1CCCC1`, the MIC was 40 µM in experiment [1], 40 µM in experiment [2], 80 µM in experiment [3] and 10 µM in experiment [4].

The record behind these values is ChEMBL document CHEMBL4354877, “MymA Bioactivated Thioalkylbenzoxazole Prodrug Family Active against Mycobacterium tuberculosis” (J Med Chem, 2020).
